ChEMBL document CHEMBL1129782, “Azole phenoxy hydroxyureas as selective and orally active inhibitors of 5-lipoxygenase” (J Med Chem, 1996)

Key:
Homo sapiens [1] = species: Homo sapiens; experiment: Inhibition of LTB4 biosynthesis at 1 uM, in calcium ionophore-stimulated human whole blood leukocyte (HBL) assay.; format: functional
Rattus norvegicus [2] = experiment: Ex vivo inhibitory activity at an peroral dose of 5 mg/Kg against LTB4 biosynthesis in rat blood, after pretreatment period of 6 hr; format: functional; settings: po
Homo sapiens [3] = species: Homo sapiens; experiment: Compound at 10 uM was tested in vitro for the inhibition of LTB4 biosynthesis in calcium ionophore-stimulated human whole blood leukocyte (HBL) assay; format: functional
[4] = molecular target: T1, Polyunsaturated fatty acid 5-lipoxygenase (Rattus norvegicus) (UniProt P12527); experiment: Ex vivo inhibitory activity at an peroral dose of 10 mg/Kg against LTB4 biosynthesis in rat blood, after pretreatment period of 3h; format: functional
T1 sequence (whole entry): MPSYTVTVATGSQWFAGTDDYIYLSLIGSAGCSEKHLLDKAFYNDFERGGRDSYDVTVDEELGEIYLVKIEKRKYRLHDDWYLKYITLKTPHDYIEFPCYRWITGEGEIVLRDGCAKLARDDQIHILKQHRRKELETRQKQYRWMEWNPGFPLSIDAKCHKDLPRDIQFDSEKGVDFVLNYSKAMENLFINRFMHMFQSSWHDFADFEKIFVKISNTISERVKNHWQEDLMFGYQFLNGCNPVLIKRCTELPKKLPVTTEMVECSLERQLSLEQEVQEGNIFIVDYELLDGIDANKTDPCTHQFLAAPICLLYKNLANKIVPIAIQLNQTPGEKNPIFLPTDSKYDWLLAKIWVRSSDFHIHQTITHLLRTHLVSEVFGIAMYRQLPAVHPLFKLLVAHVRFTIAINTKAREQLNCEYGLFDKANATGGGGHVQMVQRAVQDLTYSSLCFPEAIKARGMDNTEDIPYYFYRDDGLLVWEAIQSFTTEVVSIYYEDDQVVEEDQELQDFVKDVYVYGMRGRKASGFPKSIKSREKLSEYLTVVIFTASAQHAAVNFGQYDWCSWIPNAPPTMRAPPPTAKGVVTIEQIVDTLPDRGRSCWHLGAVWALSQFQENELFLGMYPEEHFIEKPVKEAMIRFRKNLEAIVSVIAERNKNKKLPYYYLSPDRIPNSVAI

[5] = molecular target: T1, Polyunsaturated fatty acid 5-lipoxygenase (Rattus norvegicus); experiment: Activity against LTB4 biosynthesis in the rat RPAR pleurisy model po (10 mg/kg); format: functional, organism-based
[6] = molecular target: T1, Polyunsaturated fatty acid 5-lipoxygenase (Rattus norvegicus); experiment: Ex vivo inhibitory activity at an peroral dose of 10 mg/Kg against LTB4 biosynthesis in rat blood, after pretreatment period of 6 hr; format: functional
Rattus norvegicus [7] = experiment: Activity against LTB4 biosynthesis in the rat RPAR pleurisy model po (25 mg/kg); format: functional
Rattus norvegicus [8] = experiment: Ex vivo inhibitory activity at an peroral dose of 25 mg/Kg against LTB4 biosynthesis in rat blood, after pretreatment period of 3h; format: functional; settings: po
Cavia porcellus [9] = experiment: Intravenous effective dose against antigen induced bronchoconstriction in the guinea pig; format: functional
Rattus norvegicus [10] = experiment: Ex vivo inhibitory activity at an peroral dose of 1 mg/Kg against LTB4 biosynthesis in rat blood, after pretreatment period of 6 hr; format: functional; settings: po
Rattus norvegicus [11] = species: Rattus norvegicus; experiment: Oral effective dose against LTB4 biosynthesis in the rat RPAR pleurisy model; format: functional
Homo sapiens [12] = species: Homo sapiens; experiment: In vitro inhibitory concentration against LTB4 biosynthesis in calcium ionophore-stimulated human whole blood leukocyte (HBL) assay; format: functional
Rattus norvegicus [13] = species: Rattus norvegicus; experiment: Ex vivo oral effective dose against LTB4 biosynthesis in rat blood, after pretreatment period of 3h; format: functional
Cavia porcellus [14] = species: Cavia porcellus; experiment: Oral effective dose against antigen induced bronchoconstriction in the guinea pig; format: functional
Cavia porcellus [15] = experiment: Intravenous effective dose against antigen induced bronchoconstriction in guinea pig; format: functional

inhibition [6] | SMILES | inhibition at 1 µM (Homo sapiens [1]) | also measured
0% | Cc1oc(-c2cccc(C(F)(F)F)c2)nc1COc1cccc(CN(O)C(N)=O)c1 | 51% | –
68% | NC(=O)N(O)Cc1ccc(OCc2coc(-c3ccc(C(F)(F)F)cc3)n2)cc1 | 32% | –
63% | NC(=O)N(O)Cc1cccc(OCc2csc(-c3ccc(Cl)cc3)n2)c1 | 68% | inhibition [5]: 0%
80% | NC(=O)N(O)Cc1cccc(OCc2csc(-c3ccccc3)n2)c1 | 66% | ED50 (Cavia porcellus [9]): 6 mg/kg; inhibition [5]: 40%
0% | NC(=O)N(O)Cc1ccc(OCc2csc(-c3ccc(Cl)cc3)n2)cc1 | 71% | –
38% | Cc1oc(-c2ccc(Cl)cc2)nc1COc1cccc(CN(O)C(N)=O)c1 | 77% | inhibition [5]: 47%
0% | COc1ccc(-c2nc(COc3cccc(CN(O)C(N)=O)c3)cs2)cc1 | 50% | –
67% | NC(=O)N(O)Cc1ccc(OCc2csc(-c3ccccc3)n2)cc1 | 44% | –
0% | Cc1oc(-c2ccc(SC(F)(F)F)cc2)nc1CCOc1ccc(CN(O)C(N)=O)cc1 | 50% | –
0% | Cc1oc(-c2ccccc2)nc1COc1ccc(CN(O)C(N)=O)cc1 | 50% | inhibition [5]: 36%; Inhibition (Rattus norvegicus [7]): 69%; inhibition [4]: 84%
0% | Cc1oc(-c2ccccc2)nc1COc1cccc(CN(O)C(N)=O)c1 | 52% | inhibition in vivo at 25 mg/kg (Rattus norvegicus [8]): 78%; inhibition [5]: 33%; Inhibition (Rattus norvegicus [7]): 79%

The next lines start with the molecule.

SMILES | inhibition [6] | inhibition at 1 µM (Homo sapiens [1]) | also measured
NC(=S)N(O)Cc1ccc(OCc2csc(-c3ccc(Cl)cc3)n2)cc1 | – | 57% | inhibition in vivo at 5 mg/kg (Rattus norvegicus [2]): 0%
Cc1oc(-c2ccc(C(F)(F)F)cc2)nc1CCOc1ccc(CN(O)C(N)=O)cc1F | – | 36% | –
Cc1oc(-c2ccccc2)nc1COc1ccc(C(C)N(O)C(N)=O)cc1 (configuration not stated) | – | 17% | inhibition at 10 µM (Homo sapiens [3]): 57%
Cc1oc(-c2ccco2)nc1CCOc1ccc(CN(O)C(N)=O)cc1 | – | 64% | inhibition [4]: 41%
Cc1oc(-c2ccccc2)nc1COc1cccc(C(C)N(O)C(N)=O)c1 (configuration not stated) | – | 10% | inhibition at 10 µM (Homo sapiens [3]): 80%
Cc1oc(-c2ccc(C(F)(F)F)cc2)nc1COc1cccc(CN(O)C(N)=O)c1 | – | 48% | inhibition in vivo at 5 mg/kg (Rattus norvegicus [2]): 55%; inhibition [5]: 59%
NC(=S)N(O)Cc1cccc(OCc2coc(-c3ccc(F)cc3)n2)c1 | 0% | 61% | –
NC(=O)N(O)Cc1ccc(OCc2csc(-c3ccc(C(F)(F)F)cc3)n2)cc1 | 0% | 56% | –
Cc1oc(-c2cccs2)nc1CCOc1ccc(CN(O)C(N)=O)cc1 | – | 64% | inhibition [4]: 24%
Cc1oc(-c2ccccc2)nc1COc1ccc(CN(O)C(N)=O)cc1F | – | 47% | Inhibition (Rattus norvegicus [7]): 27%; inhibition [4]: 66%
Cc1oc(-c2cccc3ccccc23)nc1CCOc1ccc(CN(O)C(N)=O)cc1 | – | 42% | –
Cc1oc(-c2ccccc2)nc1CCOc1ccc(CN(O)C(N)=O)cc1F | – | 71% | Inhibition (Rattus norvegicus [7]): 58%; inhibition [4]: 52%
NC(=O)N(O)Cc1ccc(OCCc2csc(-c3ccccc3)n2)cc1 | – | 19% | –
Cc1oc(-c2ccccc2)nc1CCOc1cccc(C(C)N(O)C(N)=O)c1 (configuration not stated) | – | 34% | –
Cc1oc(-c2ccc(F)cc2)nc1CCOc1ccc(CN(O)C(N)=O)cc1 | – | 70% | inhibition [4]: 66%
Cc1oc(-c2ccccc2F)nc1CCOc1ccc(CN(O)C(N)=O)cc1 | – | 54% | inhibition [4]: 71%
Cc1ccc(-c2nc(CCOc3ccc(CN(O)C(N)=O)cc3)c(C)o2)cc1 | – | 40% | inhibition in vivo at 5 mg/kg (Rattus norvegicus [2]): 0%; Inhibition (Rattus norvegicus [7]): 48%
CCCCCCc1nc(CCOc2ccc(CN(O)C(N)=O)cc2)c(C)o1 | – | 44% | –
COc1cc(CN(O)C(N)=O)cc(OCc2nc(-c3ccc(C(F)(F)F)cc3)oc2C)c1 | – | 0% | inhibition at 10 µM (Homo sapiens [3]): 59%
Cc1oc(-c2cccc(F)c2)nc1CCOc1ccc(CN(O)C(N)=O)cc1 | – | 63% | inhibition [4]: 80%

SMILES | inhibition [6] | inhibition at 1 µM (Homo sapiens [1]) | also measured
Cc1oc(-c2ccccc2)nc1COc1ccc(CN(O)C(N)=O)cc1Cl | – | 31% | inhibition [4]: 69%
Cc1oc(-c2cc(C(F)(F)F)cc(C(F)(F)F)c2)nc1COc1cccc(CN(O)C(N)=O)c1 | – | 15% | inhibition at 10 µM (Homo sapiens [3]): 57%
Cc1oc(-c2ccccc2)nc1CCOc1ccc(CN(O)C(N)=O)cc1 | – | 55% | inhibition in vivo at 25 mg/kg (Rattus norvegicus [8]): 79%; inhibition [5]: 69%; inhibition [4]: 0%
NC(=O)N(O)Cc1ccc(OCc2coc(-c3ccccc3)n2)cc1 | – | 58% | inhibition in vivo at 5 mg/kg (Rattus norvegicus [2]): 60%; inhibition [5]: 60%
Cc1oc(-c2ccccc2)nc1COc1cc(F)cc(CN(O)C(N)=O)c1 | – | 70% | inhibition in vivo at 5 mg/kg (Rattus norvegicus [2]): 52%; inhibition [5]: 16%
Cc1oc(-c2ccccc2)nc1CCOc1ccc(C(C)N(O)C(N)=O)cc1 (configuration not stated) | – | 0% | inhibition in vivo at 25 mg/kg (Rattus norvegicus [8]): 57%; inhibition at 10 µM (Homo sapiens [3]): 60%
NC(=O)N(O)Cc1ccc(OCCc2noc(-c3ccccc3)n2)cc1 | – | 70% | inhibition in vivo at 5 mg/kg (Rattus norvegicus [2]): 59%; Inhibition (Rattus norvegicus [7]): 19%
Cc1oc(-c2ccc(C(F)(F)F)cc2)nc1COc1cc(F)cc(CN(O)C(N)=O)c1 | – | 15% | inhibition at 10 µM (Homo sapiens [3]): 85%
NC(=O)N(O)Cc1ccc(OCCc2coc(-c3ccccc3)n2)cc1 | – | 47% | inhibition in vivo at 5 mg/kg (Rattus norvegicus [2]): 0%
NC(=O)N(O)Cc1cccc(OCCc2csc(-c3ccc(C(F)(F)F)cc3)n2)c1 | 0% | 30% | –
Cc1oc(-c2ccc(C(F)(F)F)cc2)nc1COc1ccc(CN(O)C(N)=O)cc1 | – | 34% | inhibition in vivo at 5 mg/kg (Rattus norvegicus [2]): 69%; inhibition [5]: 45%
NC(=O)N(O)Cc1ccc(OCCc2csc(-c3ccc(C(F)(F)F)cc3)n2)cc1 | – | 57% | inhibition in vivo at 5 mg/kg (Rattus norvegicus [2]): 0%
COc1ccc(-c2nc(COc3ccc(CN(O)C(N)=O)cc3)cs2)cc1 | 69% | 56% | –
COc1cc(CN(O)C(N)=O)ccc1OCc1nc(-c2ccccc2)oc1C | – | 19% | inhibition at 10 µM (Homo sapiens [3]): 81%
Cc1oc(-c2ccc(C(F)(F)F)cc2)nc1CCOc1ccc(CN(O)C(N)=O)cc1 | – | – | inhibition in vivo at 1 mg/kg (Rattus norvegicus [10]): 57%; inhibition [4]: 67%; ED50 (Rattus norvegicus [11]): 5 mg/kg
CC(c1cc2ccccc2s1)N(O)C(N)=O (configuration not stated) [ZILEUTON] | – | – | ED50 (Cavia porcellus [9]): 19 mg/kg; IC50 (Homo sapiens [12]): 3000 nM; ED50 (Rattus norvegicus [13]): 10.2 mg/kg; ED50 (Rattus norvegicus [11]): 7.8 mg/kg; ED50 (Cavia porcellus [14]): 46 mg/kg
Cc1oc(-c2ccccc2)nc1CCOc1cccc(CN(O)C(N)=O)c1 | – | 51% | inhibition [4]: 0%
COc1ccc(-c2nc(CCOc3ccc(CN(O)C(N)=O)cc3)c(C)o2)cc1 | – | 57% | inhibition in vivo at 25 mg/kg (Rattus norvegicus [8]): 32%; Inhibition (Rattus norvegicus [7]): 38%
Cc1oc(-c2ccc(F)cc2)nc1COc1cccc(CN(O)C(N)=O)c1 | – | 74% | ED50 (Cavia porcellus [15]): 5 mg/kg; inhibition [5]: 37%
